The values below come from patent US20140073607A1, “COMPOUNDS FOR USE IN THE TREATMENT OF FELINE RETROVIRAL INFECTIONS” (OKAPI SCIENCES NV, priority 2011, published 2014).

Assay [1] relates to FIV. Particulars: FIV-infected cats, Hartmann et al. 1998; cited from earlier work.
In assay [2] the test system is FIV. The experiment in a line: Treatment of clinically ill cats naturally infected with FIV. Type of assay: in vivo, cat. Here is the method:
The compounds were dissolved to a concentration ranging between 50 and 250 mg/mL in an appropriate aqueous buffered sodium hydroxide solution close to neutral pH conditions (pH between 6 and 9).
The formulated compounds were administered via the subcutaneous route at least once weekly at total dose rates ranging between 10 and 175 mg/kg per week. Treatment duration was between 1 week and 3 months.
The results of the treatment of cats with specific symptoms are discussed below. • Cats with oral signs. • Oral signs can present themselves as, but are not limited to, stomatitis, gingivitis, faucitis, glossitis, periodontitis, gingivostomatitis, ulcerations of the tonsils and tongue, salivation etc. […] Spontaneous bleeding was no longer observed and the bloody red inflammation diminished to a slightly pinkish observation. No other treatment was given concomitantly. • Cats with high viral load • FIV, as a retrovirus, reverse transcribes its viral RNA genome into proviral DNA which is subsequently inserted into the genome of its host. […] Reduction of viral load is important in controlling FIV infection in the cat. […] The graphs in FIGS. 1A, B and C represent the viral load pre and post treatment with the compounds in three different cats. No other treatment was given concomitantly. • Lethargic and emaciated cat, with severe weight loss • The FIV-positive cat was presented to the veterinarian with the following clinical signs: lethargy, emaciation, difficulty to walk, unable to jump up/off a chair, no desire to go outdoors, prolonged sleeping patterns. Prognosis was to euthanize the cat. • Treatment with the compounds was initiated and within a matter of weeks, the cat returned to normal, gained weight (0.6 kg), walked and played around, stayed outdoors for several consecutive days. […] No other treatment was given concomitantly. • Cat with lymphadenopathy (swollen/enlarged lymph nodes) • A male FIV-positive cat with swollen Lnn. poplitei (score 4; severity is scored on a scale from 0 to 10 with 0 representing a normal clinical picture and 10 being the most severe manifestation) was treated with the compounds. Within two weeks the swelling went down to a score of 2. At the end of the 6-week treatment period with the compounds a score of 1 was noted; 0 representing a normal clinical picture. […] Before treatment the Lnn. poplitei were swollen (score 2). Two weeks into treatment the lymphnodes returned to normal (score 0) which was maintained throughout the 6-week treatment period with the compounds. • Similar observations were made for two FIV-positive cats. When treatment was initiated the Lnn. mandibulares were swollen (score 2 and 3, respectively). The returned to normal (score 0) by the end of the 6-week treatment with the compounds. • Cat with inflammation of the eye • A female FIV-positive cat suffered from chronic inflammation of the eye before treatment with the compounds was initiated despite concurrent antibacterial treatment. […] No other treatment was given concomitantly. One week following treatment the cat was able to sit up straight and eat on its own. Treatment was continued for another four weeks after which the cat was able to walk, climb up and down stairs, and eat on its own. […] The Karnofsky's score has proven its validity in cats to assess and compare the efficacy of antiviral compounds (Hartmann et al., J Acquir Immune Defic Syndr Hum Retrovirol 1998). Table 4 summarizes the Karnofsky's score of two FIV-positive cats before, during and post treatment with the compounds. No other treatment was given concomitantly.

The next assay concerns FIV and FeLV. The experiment in a line: Treatment of cats naturally co-infected with FIV and FeLV. It counts as in vivo. Conditions: cat co-infected with FIV and FeLV, pre versus post treatment (FIG. 2); no other treatment. Here is the method:
The compounds were dissolved in an appropriate aqueous buffered sodium hydroxide solution (at concentration ranging between 50 and 250 mg/ml and close to neutral pH conditions (pH between 6 and 9). The formulated compounds were administered via the subcutaneous route at least once weekly at total dose rates ranging between 10 and 175 mg/kg per week. Treatment duration was between 1 week and 3 months.
FIV and FeLV, as retroviruses, reverse transcribe their viral RNA genome into proviral DNA which is subsequently inserted into the genome of its host. […] Reduction of viral load is important in controlling FIV/FeLV infection in the cat. […] The graph in FIG. 2 represents the viral load pre and post treatment with the compounds in a cat co-infected with FIV and FeLV. No other treatment was given concomitantly.

The test system of a further assay is FIV-Ut113. The experiment in a line: Inhibition of FIV replication in CrFK cells co-infected with FeLV and FIV (p24 ELISA and RT-qPCR). Particulars: CrFK cells co-infected with FeLV and FIV-Ut113, six days; mean ± SD of three independent assays. It counts as cell-based. Here is the method: (§1) The compounds were dissolved in a 0.05 N sodium hydroxide solution at a concentration of 10 mg/ml. Reference compounds PMEDAP and PMEA were dissolved in a sodium bicarbonate buffer at a concentration of 10 mg/ml.
(§2) Crandell Reese Feline kidney (CrFK) cells were grown in Dulbecco minimum essential medium (DMEM, Life Technologies) containing 1% sodium bicarbonate (Life Technologies) and 5% fetal calf serum (FCS, Biochrom). In a 96-well plate 5000 CrFK cells were seeded and incubated for 24 h at 37° C. in a humid atmosphere containing 5% CO2. Subsequently cells were washed with 100 μl phosphate buffered saline (PBS) containing 50 μg/ml DEAE-dextran and co-infected with 100 CCID50 FeLV and 100 CCID50 FIV-Ut113 in presence of increasing doses of the compounds (0.4; 2; 10 and 50 μg/ml). After 2 h of incubation allowing the virus to enter the cells, the supernatant was removed and the cells were washed with PBS. […] The cells were incubated for six days when viral supernatant was collected and analyzed by ELISA for FeLV p27 and FIV p24 antigen production and real time RT-qPCR for FeLV and FIV RNA production. […] Subsequently the amount of FIV p24 was detected by a monoclonal biotinylated antibody 5E6D11 followed by a colorimetric reaction which is based on extravidin peroxidase (Sigma) and OPD substrate (Sigma).

In assay [3] the test system is FeLV. The experiment in a line: Treatment of cats naturally infected with FeLV. Type of assay: in vivo, cat.
The subject of assay [4] is FeLV. Briefly: Inhibition of FeLV replication in CrFK cells co-infected with FeLV and FIV (p27 ELISA and RT-qPCR). Type of assay: cell-based. Conditions: CrFK cells co-infected with FeLV and FIV-Ut113, six days; mean ± SD of three independent assays. The method, then: as §1, §2
Assay [5] deals with FeLV. The experiment in a line: Inhibition of FeLV replication in CrFK cell culture (p27 ELISA and RT-qPCR). It counts as cell-based. Particulars: CrFK cells, 100 CCID50 FeLV, six days, mean ± SD of three independent assays. The method, then:
The compounds were dissolved in a 0.05 N sodium hydroxide solution at a concentration of 10 mg/ml. Crandell Reese Feline kidney (CrFK) cells were grown in Dulbecco minimum essential medium (DMEM, Life Technologies) containing 1% sodium bicarbonate (Life Technologies) and 5% fetal calf serum (FCS, Biochrom). In a 96-well plate 5000 CrFK cells were seeded and incubated for 24 h at 37° C. in a humid atmosphere containing 5% CO2. Subsequently cells were washed with 100 μl phosphate buffered saline (PBS) containing 50 μg/ml DEAE-dextran and inoculated with 100 CCID50 FeLV in presence of increasing doses of the compounds (0.4; 2; 10 and 50 μg/ml). After 2 h of incubation allowing the virus to enter the cells, the supernatant was removed and the cells were washed with PBS. DMEM including 5% FCS and containing increasing doses of the compounds were added to the infected cells. Infected cells without compounds were included as positive controls (virus control) and uninfected cells were included as negative controls (cell control). The cells were incubated for six days when viral supernatant was collected and analyzed by enzyme-linked immunosorbent assay (ELISA) for FeLV p27 antigen production and real time RT-qPCR for FeLV RNA production. […]
A general note: An ELISA detects its analyte on a solid surface through an enzyme-linked reagent.

Setting [6] is: FIV-positive cat A, 50% before treatment.
The mark [7] stands for this setting: FIV-positive cat B, 30.5% before treatment.

In brackets after ≈: the same amount, converted by molar mass.

Take `Nc1ncnc2c1ncn2C[C@@H](CF)OCP(=O)(O)O` [FPMPA, (S)-9-(3-fluoro-2-phosphonylmethoxypropyl)adenine]: in the assay on FIV [1], the “Effect on FIV load” value is listed as “reduced the FIV load” and the “Improvement in Karnofsky's score” value is reported as 3.8%.

On to `Nc1ncnc2c1ncn2CCOCP(=O)(O)O` [PMEA, 9-(2-phosphonylmethoxyethyl)adenine, reference compound], for which, in the assay with FIV [1], the “Effect on FIV load” value is “did not decrease the FIV load” and the “Improvement in Karnofsky's score” value is 10%.

Turning to `CC(Cn1cnc2c(N)nc(N)nc21)OCP(=O)(O)O` (centres unmarked) [R-PMPDAP, 9-(2-phosphonylmethoxypropyl)-2,6-diaminopurine], in the assay on FIV [2] (setting [6]), the “Karnofsky's score, 1 month post cessation of treatment” value was 90%; the “Karnofsky's score, during treatment” value turned out to be 70%; the “Karnofsky's score, end of treatment” value was found to be 90%. Also, in the assay on FIV [2] (setting [7]), the “Karnofsky's score, 1 month post cessation of treatment” value is 35%; the “Karnofsky's score, during treatment” value is 50%; the “Karnofsky's score, end of treatment” value amounted to 50%. Also, the Stomatitis upon treatment result with FIV [2] (FIV-positive cat with severe caudal stomatitis and buccostomatitis, subcutaneous, 10-175 mg/kg per week, no other treatment) is reported as “the stomatitis decreased significantly”. The Gingivitis upon treatment entry in the assay on FIV [2] (FIV-positive cat with severe gingivitis with spontaneous bleeding, subcutaneous, no other treatment) is “the gingivitis decreased significantly”. In addition, the “Viral load (FIV virions per mL plasma)” value in the assay on FIV [2] (FIV-positive cats, pre versus post treatment, three cats (FIG. 1A, B, C)) is reported as “significantly reduce the viral load”. In addition, in the assay with FIV [2] (female FIV-positive cat, concurrent antibacterial treatment), the “Chronic inflammation of the eye following treatment” value is listed as “on its way to full recovery”. Also, the “Swelling score of Lnn. poplitei” value in the assay on FIV [2] (female FIV-positive cat, score 2 before treatment, scale 0 to 10, two weeks into treatment, maintained throughout 6 weeks) is given as 0. This molecule displayed a Weight gained with FIV [2] (lethargic, emaciated FIV-positive cat with severe weight loss, within a matter of weeks) of 0.6 kg. Further, the General condition result in the assay on FIV [2] (lethargic, emaciated FIV-positive cat, prognosis was to euthanize, within a matter of weeks) is “general condition returned to normal”. For the same molecule, the “Swelling score of Lnn. poplitei” value in the assay on FIV [2] (male FIV-positive cat, score 4 before treatment, scale 0 to 10, end of the 6-week treatment period) is 1. Further, the “Swelling score of Lnn. poplitei” value in the assay on FIV [2] (male FIV-positive cat, score 4 before treatment, scale 0 to 10, within two weeks) is given as 2. Further, the “Neurological symptoms (acute paresis of left front and hind legs)” value with FIV [2] (male FIV-positive cat, shortly after five weeks of treatment, no other treatment) is “A full recovery was observed”. Also, the “Feces (chronic daily diarrhea)” value in the assay with FIV [2] (male FIV-positive cat, within two weeks) is on record as “returned to normal within two weeks”. Moreover, the “Swelling score of Lnn. mandibulares” value with FIV [2] (two FIV-positive cats, score 2 and 3 at start, scale 0 to 10, end of the 6-week treatment) is reported as 0. In the assay on FIV and FeLV, the “Viral load (FIV/FeLV virions per mL plasma)” value was “significantly reduce the viral load”. Besides, in the assay with FIV-Ut113, the “EC50 FIV ELISA (p24)” value is 0.332 ± 0.035 µg/mL (≈ 1.1 µM) and the “EC50 FIV RT-qPCR” value was found to be 0.258 ± 0.024 µg/mL (≈ 0.854 µM). Besides, the “FeLV viral load after treatment” value in the assay on FeLV [3] (female FeLV-positive viremic cat, RT-qPCR, decreased from 15500) is on record as 3200 FeLV virions per mL plasma. Besides, in the assay on FeLV [3] (male FeLV-positive cat with clinical signs, 58.5% before treatment), the “Karnofsky's score at the end of the 3-week treatment period” value came to 80%. Besides, the “FeLV associated clinical signs following treatment” value in the assay on FeLV [3] (male FeLV-positive cat with oral inflammation, lymphadenopathy, diarrhea) is given as “the clinical signs ameliorated”. Moreover, in the assay with FeLV [4], the “EC50 FeLV ELISA (p27)” value is 0.062 ± 0.010 µg/mL (≈ 0.205 µM) and the “EC50 FeLV RT-qPCR” value amounted to 0.095 ± 0.050 µg/mL (≈ 0.314 µM). Moreover, the “EC50 of FeLV replication, RT-qPCR” value in the assay on FeLV [5] (FeLV RNA in supernatant) stood at 0.039 ± 0.024 µg/mL. Besides, the “EC50 of FeLV replication, p27 ELISA” value with FeLV [5] (p27 antigen in supernatant) is 0.030 ± 0.006 µg/mL.
